{"source": "patent US20100317604A1", "about": "“FORSYTHIASIDE INJECTION PREPARATION AND PREPARATIVE METHOD THEREOF” (Shanghai Youseen New Medicine Exploition Co., Ltd, priority 2006, published 2010)", "assay": "Choice of the pH value (HPLC peak area of Forsythiaside)", "format": "physicochemical", "conditions": "for Peak Area: HPLC peak area of Forsythiaside in water", "from_the_text": "Taking appropriate amount of Forsythiaside, adding water to it for dissolution. Adjusting the pH value to 3.0, 3.5, 4.0, 4.5, 5.0, 5.5, 6.0 separately, then determining the peak area value of Forsythiaside at different pH value by HPLC to investigate the influence on the content of Forsythiaside caused by different pH value."}
{"substance": "Forsythiaside", "values": [{"measurement": "Peak Area", "setting": "pH Value 3.0", "value": 1410.0}, {"measurement": "Peak Area", "setting": "pH Value 3.5", "value": 1499.0}, {"measurement": "Peak Area", "setting": "pH Value 4.0", "value": 1519.8}, {"measurement": "Peak Area", "setting": "pH Value 4.5", "value": 1523.1}, {"measurement": "Peak Area", "setting": "pH Value 5.0", "value": 1494.5}, {"measurement": "Peak Area", "setting": "pH Value 5.5", "value": 1480.6}, {"measurement": "Peak Area", "setting": "pH Value 6.0", "value": 1423.5}, {"measurement": "content of Forsythiaside at different pH value", "setting": "pH value 3.0-6.0", "value": "not sufficiently varied"}, {"measurement": "content of Forsythiaside at different pH value", "setting": "pH value 4.5", "value": "highest content"}]}
